From PubChem BioAssay (NCI)
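Interpolation was linear, between the two tested concentrations surrounding the appropriate level; five concentrations were tested over 48 hours in 96-well plates. TGI denotes the concentration required for complete inhibition of growth.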

Experiments:
Assay in all cases: NCI anticancer screen, dose series, 48 h
CCRF-CEM leukemia = tested on: CCRF-CEM leukemia
KM12 colon = tested on: KM12 colon
K-562 leukemia = tested on: K-562 leukemia
SN12C renal = tested on: SN12C renal
SK-MEL-2 melanoma = tested on: SK-MEL-2 melanoma
HS 578T breast = tested on: HS 578T breast
NCI/ADR-RES ovarian = tested on: NCI/ADR-RES ovarian
SF-539 CNS = tested on: SF-539 CNS
MALME-3M melanoma = tested on: MALME-3M melanoma
RXF 393 renal = tested on: RXF 393 renal
SK-MEL-5 melanoma = tested on: SK-MEL-5 melanoma
A498 renal = tested on: A498 renal
HCC-2998 colon = tested on: HCC-2998 colon

Row | SMILES | TGI (CCRF-CEM leukemia) | TGI (KM12 colon) | TGI (K-562 leukemia) | TGI (SN12C renal) | TGI (SK-MEL-2 melanoma) | TGI (HS 578T breast) | TGI (NCI/ADR-RES ovarian) | TGI (SF-539 CNS) | TGI (MALME-3M melanoma) | TGI (RXF 393 renal) | TGI (SK-MEL-5 melanoma) | TGI (A498 renal) | TGI (HCC-2998 colon)
1 | CN1N=C(c2ccncc2)OC1c1ccc(Cl)c(Cl)c1 (configuration not stated) | > 100 µM | > 100 µM | > 100 µM | > 100 µM | > 100 µM | > 100 µM | > 100 µM | > 100 µM | > 100 µM | > 100 µM | > 100 µM | > 100 µM | > 100 µM
2 | CC(=O)Oc1ccc(-c2cc3ccccc3oc2=O)cc1OC(C)=O | > 100 µM | 33.2 µM | > 100 µM | > 100 µM | > 100 µM | > 100 µM | > 100 µM | > 100 µM | > 100 µM |  |  | > 100 µM | 59.3 µM
3 | CCCNc1[nH]c(C(C)=O)c(N)c1C(=S)Nc1ccccc1 | > 100 µM | > 100 µM | > 100 µM | > 100 µM | > 100 µM | > 100 µM | > 100 µM | 65.4 µM | 83.9 µM | 65.3 µM | 52.3 µM | > 100 µM | > 100 µM
4 | COC(=O)C1=NN2c3ccccc3CN([C@@H](C)c3ccccc3)C(=O)[C@@H]2C1 | > 100 µM | 51.3 µM | 76.6 µM | > 100 µM | 74.1 µM | 85.8 µM | 56.1 µM | > 100 µM | 62.8 µM | > 100 µM | 32.7 µM | > 100 µM | > 100 µM
5 | Cn1ncc2c(NCCc3ccccc3)nc(Cl)nc21 |  | 85.5 µM | > 100 µM | > 100 µM | 36.7 µM | > 100 µM | 59.9 µM |  | > 100 µM | > 100 µM | 38.6 µM | 45.5 µM | 40.3 µM
6 | Cn1cc(-c2ccc(CCOC3CCCCO3)cc2)c2c(C#N)cccc21 (configuration not stated) | > 100 µM | > 100 µM | > 100 µM | > 100 µM | > 100 µM | > 100 µM | > 100 µM | > 100 µM | > 100 µM | > 100 µM | > 100 µM | > 100 µM | > 100 µM
7 | COC(=O)C(Cc1ccccc1)NS(=O)(=O)c1ccc(-c2c3nc(c(-c4ccc(S(=O)(=O)NC(Cc5ccccc5)C(=O)OC)cc4)c4ccc([nH]4)c(-c4ccc(S(=O)(=O)NC(Cc5ccccc5)C(=O)OC)cc4)c4nc(c(-c5ccc(S(=O)(=O)NC(Cc6ccccc6)C(=O)OC)cc5)c5ccc2[nH]5)C=C4)C=C3)cc1 (configuration not stated) | > 100 µM | > 100 µM | > 100 µM | > 100 µM | > 100 µM | 62 µM | > 100 µM | > 100 µM | > 100 µM | > 100 µM | > 100 µM | > 100 µM | > 100 µM
8 | C=CCC1(O)c2cccc(O)c2C(=O)c2c(O)cccc21 |  | > 100 µM | > 100 µM |  | 51.2 µM | 63.1 µM | 43 µM | > 100 µM |  | 53.4 µM | 85.9 µM | 79.4 µM | 43.7 µM
9 | Cc1cc(S(=O)(=O)Nc2nc(N)n(C)n2)c(S)cc1Cl | > 10 µM | > 10 µM | > 10 µM | > 10 µM | > 10 µM | > 10 µM | > 10 µM | > 10 µM | > 10 µM | > 10 µM | > 10 µM | > 10 µM | > 10 µM
10 | Nc1ncnc2c1ncn2CC(OCP(=O)(O)O)Oc1ccccc1 (configuration not stated) | > 100 µM | > 100 µM | > 100 µM | > 100 µM | > 100 µM | > 100 µM | > 100 µM | > 100 µM |  | > 100 µM | > 100 µM | > 100 µM | > 100 µM
11 | COC(=O)[C@]1(c2cc3ccccc3[nH]2)CC2CN(CC(=O)N(C)OC)C1C1OC(C)(C)OC21 (some centres not stated) | > 100 µM | > 100 µM | > 100 µM | > 100 µM | > 100 µM | > 100 µM | > 100 µM | > 100 µM | > 100 µM | > 100 µM | > 100 µM | 91.7 µM | > 100 µM
12 | CS(=O)(=O)C(=Cc1ccccc1Cl)S(C)(=O)=O | > 100 µM | > 46.4 µM | > 100 µM | > 100 µM | > 100 µM | > 100 µM | > 100 µM | > 100 µM | > 100 µM | > 100 µM | > 100 µM | > 100 µM | > 100 µM
13 | COc1cccc(/C=N/n2c(-c3ccccc3)n[nH]c2=O)c1 | > 100 µM | > 100 µM | > 100 µM | > 100 µM | > 100 µM | 38.8 µM | > 100 µM | > 100 µM | > 100 µM |  |  | > 100 µM | > 100 µM
14 | CC(=O)OCCn1c(Cc2ccc([N+](=O)[O-])cc2)nn(C(C)=O)c1=O | > 100 µM | > 100 µM | > 100 µM | > 100 µM | > 100 µM | > 100 µM | > 100 µM | > 100 µM | > 100 µM |  | > 100 µM | > 100 µM | > 100 µM
15 | COc1ccc(OC)c(C2CCc3cnc4nc(N)nc(N)c4c3C2)c1 (configuration not stated) | > 100 µM | > 100 µM | > 100 µM | > 100 µM | > 100 µM | > 100 µM | > 100 µM |  | > 100 µM | 83.3 µM | > 100 µM | > 100 µM | > 100 µM
16 | Nc1nc(Cl)c2ncn(Cc3ccccc3CCl)c2n1 | > 100 µM | 39 µM | > 100 µM | 5.62 µM | 80.6 µM | 77.6 µM | 34.6 µM | 38.2 µM | 10.2 µM |  | 26.5 µM | 44.3 µM | 6.57 µM
17 | COc1cc(/C=C2\NC(=O)N(/C=C3\C(=O)Oc4ccccc4C3=O)C2=O)ccc1O | 92.6 µM | > 100 µM | > 100 µM | > 100 µM | > 100 µM | > 100 µM | > 100 µM | > 100 µM |  | 99.2 µM | > 100 µM | > 100 µM | > 100 µM
